The values that follow come from article doi:10.1101/854513v2 (biorxiv, 2020).

Changes are numbered by the printed parent chain. Read-outs that look alike come from different tables or passages of the source.

The target of one test is hM3 (Homo sapiens, UniProt P20309). Nature of the test: biochemical. The test is classed as binding.
The target in test [1] is T1, hM3Dq (Homo sapiens, UniProt P20309, A239G/Y149C). Briefly: cell-based.
The target in test [2] is T1, hM3Dq. Nature of the test: biochemical. The test is classed as binding.
The target in test [3] is T2, hM4Di (Homo sapiens, UniProt P08173, A203G/Y113C).
T2 sequence (P08173 1-479 Y113C/A203G): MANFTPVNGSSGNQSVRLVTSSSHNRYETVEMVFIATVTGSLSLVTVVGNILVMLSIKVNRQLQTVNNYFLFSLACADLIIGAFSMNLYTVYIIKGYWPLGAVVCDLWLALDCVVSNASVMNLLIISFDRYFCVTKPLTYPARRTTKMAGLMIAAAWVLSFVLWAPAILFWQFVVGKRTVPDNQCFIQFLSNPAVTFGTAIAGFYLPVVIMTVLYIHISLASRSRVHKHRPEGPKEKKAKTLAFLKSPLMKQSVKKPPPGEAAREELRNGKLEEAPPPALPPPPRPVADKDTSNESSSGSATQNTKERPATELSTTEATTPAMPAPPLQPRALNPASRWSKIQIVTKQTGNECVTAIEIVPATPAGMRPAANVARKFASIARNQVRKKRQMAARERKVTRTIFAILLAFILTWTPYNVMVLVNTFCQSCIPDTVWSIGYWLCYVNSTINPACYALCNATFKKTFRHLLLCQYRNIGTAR
Nature of the test: BRET G protein dissociation. It counts as cell-based.

For test [4], the target named is T2, hM4Di. Nature of the test: [3H]QNB competition binding.
In another test the target is T3, hM4 (Homo sapiens, UniProt P08173).
T3 sequence (P08173 1-479): T2 sequence (P08173 1-479 Y113C/A203G) with C113Y, G203A
Nature of the test: [3H]QNB competition binding.

Another test concerns the target T4, hM5 (Homo sapiens, UniProt P08912).
T4 sequence (P08912 1-532): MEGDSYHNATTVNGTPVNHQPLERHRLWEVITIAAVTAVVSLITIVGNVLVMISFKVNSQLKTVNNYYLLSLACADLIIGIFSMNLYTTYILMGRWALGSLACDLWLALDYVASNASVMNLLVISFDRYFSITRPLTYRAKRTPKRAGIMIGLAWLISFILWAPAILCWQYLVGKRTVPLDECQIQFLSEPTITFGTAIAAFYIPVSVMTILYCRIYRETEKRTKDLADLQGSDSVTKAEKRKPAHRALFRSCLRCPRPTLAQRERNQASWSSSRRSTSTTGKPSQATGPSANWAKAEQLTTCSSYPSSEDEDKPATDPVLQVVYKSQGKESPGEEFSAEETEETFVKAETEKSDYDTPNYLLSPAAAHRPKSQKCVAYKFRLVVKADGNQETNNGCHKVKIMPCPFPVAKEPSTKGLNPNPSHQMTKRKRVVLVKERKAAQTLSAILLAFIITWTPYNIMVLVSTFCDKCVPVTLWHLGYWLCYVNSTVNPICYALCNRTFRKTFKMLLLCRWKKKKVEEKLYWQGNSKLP
Briefly: radioligand competition binding. In general terms: In a radioligand displacement assay an active substance lowers the binding of a labelled ligand.

The next test concerns the target T5, hM1 (Homo sapiens, UniProt P11229).
T5 sequence (P11229 1-460): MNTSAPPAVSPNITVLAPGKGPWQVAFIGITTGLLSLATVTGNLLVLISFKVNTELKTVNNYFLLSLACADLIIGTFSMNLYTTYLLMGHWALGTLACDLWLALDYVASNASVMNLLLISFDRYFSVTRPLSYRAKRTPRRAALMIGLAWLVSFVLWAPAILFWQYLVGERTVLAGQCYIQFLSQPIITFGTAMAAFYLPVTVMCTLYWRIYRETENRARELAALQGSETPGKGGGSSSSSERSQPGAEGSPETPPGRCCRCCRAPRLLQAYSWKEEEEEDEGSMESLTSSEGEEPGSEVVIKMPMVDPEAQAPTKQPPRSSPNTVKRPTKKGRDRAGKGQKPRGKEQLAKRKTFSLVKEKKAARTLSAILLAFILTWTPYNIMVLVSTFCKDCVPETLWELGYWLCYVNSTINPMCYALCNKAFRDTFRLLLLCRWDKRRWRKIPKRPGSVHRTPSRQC
Briefly: radioligand competition binding.

T1 sequence (P20309 whole entry Y149C/A239G): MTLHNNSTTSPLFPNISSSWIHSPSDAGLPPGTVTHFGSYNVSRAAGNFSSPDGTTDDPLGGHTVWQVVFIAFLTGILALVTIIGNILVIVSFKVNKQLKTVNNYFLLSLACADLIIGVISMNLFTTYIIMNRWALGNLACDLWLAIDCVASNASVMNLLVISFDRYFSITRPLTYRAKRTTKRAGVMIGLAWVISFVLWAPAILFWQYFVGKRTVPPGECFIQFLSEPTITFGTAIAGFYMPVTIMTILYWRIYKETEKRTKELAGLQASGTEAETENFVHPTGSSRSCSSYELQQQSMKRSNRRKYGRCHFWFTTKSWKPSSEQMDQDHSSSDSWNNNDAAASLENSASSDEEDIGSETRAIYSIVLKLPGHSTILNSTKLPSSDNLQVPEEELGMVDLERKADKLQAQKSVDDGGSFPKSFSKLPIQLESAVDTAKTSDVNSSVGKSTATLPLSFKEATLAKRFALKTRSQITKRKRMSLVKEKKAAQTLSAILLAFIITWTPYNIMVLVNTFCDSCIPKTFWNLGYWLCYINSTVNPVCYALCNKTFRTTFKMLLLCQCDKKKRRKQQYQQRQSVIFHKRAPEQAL
Chain of hM3 (P20309 whole entry): as the sequence (P20309 whole entry Y149C/A239G) above, with C149Y, G239A counted along it

Take `c1ccc2c(c1)N=C(N1CCNCC1)c1ccccc1N2` [C21]: the Ki – broadly, a measure of affinity in units of concentration, obtained from inhibition or displacement – at hM3 (HEK293T, [3H]QNB […]) stood at 270 nM; on hM3Dq [2], 850 nM. Besides, the results for the EC50 at hM3Dq [1] and at hM4Di [3] were 5.2 nM and 2.6 nM, respectively.

As to `C[N+]1([O-])CCN(C2=Nc3cc(Cl)ccc3Nc3ccccc32)CC1` [CNO], the Ki stood at 2600 nM at hM3, 360 nM on hM4Di [4], 3700 nM on hM4 and 680 nM on hM3Dq [2]. Further, the 50% effective concentration (EC50) (in general, the concentration that produces a half-maximal response) on hM3Dq [1] amounted to 15 nM; on hM4Di [3], 7.3 nM.

As to `CN1CCN(C2=Nc3ccccc3Nc3ccccc32)CC1` [DCZ, 11-(4-methyl-1-piperazinyl)-5H-dibenzo(b,e)(1,4)diazepine], the Ki came out at 230 nM at hM3; 55 nM at hM5; 83 nM on hM1; 4.2 nM at hM4Di [4]; 210 nM on hM4; 6.3 nM at hM3Dq [2]. Moreover, the half-maximal effective concentration (EC50) on hM3Dq [1] is 0.13 nM; at hM4Di [3] it was 0.081 nM.
